Assay results taken from US8222247B2, “Modulators of glucocorticoid receptor, AP-1, and/or NF-kappabeta activity and use thereof” (Bristol-Myers Squibb Company, priority 2006, dated 2012).
Like-named read-outs stand apart in the source and are kept apart here.

Test system: AP-1 induced transcriptional activity
Assay: Cellular Transrepressional Assay (AP-1 luciferase reporter in A549 cell, PMA activated)
Type: cell-based
Details: pAP-1-Luc; for Emax / AP-1 Max % inh (Cellular Transrepression Assay): maximum inhibition, PMA; for Emax: read-out: AP-1 Max % inh (Cellular Transrepression Assay); for EC50: 10 ng/ml PMA, 7 hours, read-out: AP-1 EC50, nM (Cellular Transrepression Assay)
Method: Cellular Transrepressional Assay
To measure the ability of test molecules to inhibit AP-1 induced transcriptional activity we utilized an A549 cell which was stably transfected with a plasmid containing 7×AP-1 DNA binding sites (pAP-1-Luc plasmid, Stratagene Co. La Jolla, Calif.) followed by the gene for luciferase. Cells were activated with 10 ng/ml of phorbol myristic acid (PMA) plus or minus test molecules for 7 hours. After 7 hours a luciferase reagent was added to measure luciferase enzymatic activity in the cell. After a 10 minute incubation of luciferase reagent with cells, luminescence was measured in a TopCount luminescence counter. Repression of AP-1 activity was calculated as the percentage decrease in the signal induced by PMA alone. Test molecules were analyzed in the concentration range from 0.1 nM to 40 μM. EC50s were determined by using standard curve fitting methods such as Excel fit (Microsoft Co.). An EC50 is the test molecule concentration at which there is a 50% repression of the maximal inhibition of transcription, i.e. a 50% reduction of AP-1 activity.

Structure (SMILES) | Emax (Homo sapiens, A549, 7 h) | EC50 | EC50 (Homo sapiens, A549, 7 h) | AP-1 Max % inh (Cellular Transrepression Assay)
CCN(C)C(=O)c1ccc(-c2ccc(C(c3cccc(F)c3)C(C)C(=O)Nc3nncs3)s2)cc1 (single isomer, unassigned) [Example 98, N-ethyl-4-(5-(1-(3-fluorophenyl)-2-methyl-3-oxo-3-(1,3,4-thiadiazol-2-ylamino)propyl)-2-thienyl)-N-methylbenzamide] | 55.3% | 15.8 nM |  | 
CC(C)(C(=O)Nc1nncs1)[C@@H](c1cccc(F)c1)c1ccc(-c2ccc(C(=O)N3CCOCC3)c(Cl)c2)s1 [Example 67, (3R)-3-(5-(3-chloro-4-(4-morpholinylcarbonyl)phenyl)-2-thienyl)-3-(3-fluorophenyl)-2,2-dimethyl-N-1,3,4-thiadiazol-2-ylpropanamide] | 51.2% |  | 12.8 nM | 
CC(C)Cc1ccc(-c2ccc([C@@H](c3cccc(F)c3)[C@@H](C)C(=O)Nc3nncs3)s2)cc1 [Example 114, (2R,3R)-3-(3-fluorophenyl)-3-(5-(4-isobutylphenyl)-2-thienyl)-2-methyl-N-1,3,4-thiadiazol-2-ylpropanamide] | 36.6% |  | 45.5 nM | 
CC(C)(C(=O)Nc1nncs1)[C@@H](c1cccc(F)c1)c1ccc(-c2ccc(C(=O)N3CCC(F)(F)C3)cc2)s1 [Example 79, (3R)-3-(5-(4-((3,3-difluoro-1-pyrrolidinyl)carbonyl)phenyl)-2-thienyl)-3-(3-fluorophenyl)-2,2-dimethyl-N-1,3,4-thiadiazol-2-ylpropanamide] | 42.6% |  | 30.3 nM | 
CC(C)Oc1ccc(-c2ccc(C(c3ccccc3)C(C)(C)C(=O)Nc3nncs3)cn2)cc1 (stereo not drawn) [Example 33, 3-(6-(4-isopropoxyphenyl)-3-pyridinyl)-2,2-dimethyl-3-phenyl-N-1,3,4-thiadiazol-2-ylpropanamide] | 37.7% |  | 24 nM | 
CC(C)(C(=O)Nc1nncs1)C(c1ccccc1)c1ccc(N2CCOCC2)nc1 (single isomer, unassigned) [Example 23, 2,2-Dimethyl-3-(6-(4-morpholinyl)-3-pyridinyl)-3-phenyl-N-1,3,4-thiadiazol-2-ylpropanamide] | 29.4% |  | 142 nM | 
CC(C)(C(=O)Nc1nccs1)C(c1ccccc1)c1ccc(N2CCOCC2)nc1 (single isomer, unassigned) [Example 21, 2,2-Dimethyl-3-(6-(4-morpholinyl)-3-pyridinyl)-3-phenyl-N-1,3-thiazol-2-ylpropanamide] | 23.9% |  | 40.5 nM | 
CN(C)C(=O)c1ccc(-c2ccc([C@H](c3cccc(F)c3)C(C)(C)C(=O)Nc3nncs3)s2)cc1 [Example 65, 4-(5-((1R)-1-(3-fluorophenyl)-2,2-dimethyl-3-oxo-3-(1,3,4-thiadiazol-2-ylamino)propyl)-2-thienyl)-N,N-dimethylbenzamide] | 49.6% |  | 7 nM | 
CC(C(=O)Nc1nncs1)C(c1cccc(F)c1)c1ccc(-c2ccc(C(=O)N3CCOCC3)cc2)s1 (single isomer, unassigned) [Example 101, 3-(3-fluorophenyl)-2-methyl-3-(5-(4-(4-morpholinylcarbonyl)phenyl)-2-thienyl)-N-1,3,4-thiadiazol-2-ylpropanamide] |  | 576 nM |  | 51.00 % inh
CC(C)(C(=O)Nc1nncs1)C(c1ccccc1)c1ccc(-c2ccc(C(=O)N3CCOCC3)c(Cl)c2)s1 (stereo not drawn) [Example 52, 3-(5-(3-chloro-4-(4-morpholinylcarbonyl)phenyl)-2-thienyl)-2,2-dimethyl-3-phenyl-N-1,3,4-thiadiazol-2-ylpropanamide] | 38.5% |  | 12.1 nM | 
C[C@@H](C(=O)Nc1nncs1)[C@H](c1cccc(F)c1)c1ccc(-c2ccc(C(=O)N(C)C)c(F)c2)s1 [Example 112, 2-fluoro-4-(5-((1R,2R)-1-(3-fluorophenyl)-2-methyl-3-oxo-3-(1,3,4-thiadiazol-2-ylamino)propyl)-2-thienyl)-N,N-dimethylbenzamide] | 54% |  | 18.5 nM | 
CC(C)Oc1ccc(-c2ccc(C(c3cccc(F)c3)C(C)(C)C(=O)Nc3nncs3)s2)cc1 (stereo not drawn) [Example 38, 3-(3-fluorophenyl)-3-(5-(4-isopropoxyphenyl)-2-thienyl)-2,2-dimethyl-N-1,3,4-thiadiazol-2-ylpropanamide] | 23.1% |  | 8.43 nM | 
CC(C)(C(=O)Nc1nncs1)C(c1ccccc1)c1ccc(N2CCOCC2)nc1 (stereo not drawn) [Example 13, 2,2-dimethyl-3-(6-(4-morpholinyl)-3-pyridinyl)-3-phenyl-N-1,3,4-thiadiazol-2-ylpropanamide] | 42.2% |  | 245 nM | 
CN(C)C(=O)c1ccc(-c2ccc(C(c3ccccc3)C(C)(C)C(=O)Nc3nncs3)cn2)cc1 (stereo not drawn) [Example 32, 4-(5-(2,2-dimethyl-3-oxo-1-phenyl-3-(1,3,4-thiadiazol-2-ylamino)propyl)-2-pyridinyl)-N,N-dimethylbenzamide] | 43.1% |  | 73.9 nM | 
CCN(C)C(=O)c1ccc(-c2ccc([C@@H](c3cccc(F)c3)[C@@H](C)C(=O)Nc3nncs3)s2)cc1Cl [Example 119, 2-chloro-N-ethyl-4-(5-((1R,2R)-1-(3-fluorophenyl)-2-methyl-3-oxo-3-(1,3,4-thiadiazol-2-ylamino)propyl)-2-thienyl)-N-methylbenzamide] | 47.6% |  | 22.7 nM | 
CC(C(=O)Nc1nncs1)C(c1cccc(F)c1)c1ccc(-c2ccc(C(=O)N(C)C)cc2)s1 (single isomer, unassigned) [Example 103, 4-(5-(1-(3-fluorophenyl)-2-methyl-3-oxo-3-(1,3,4-thiadiazol-2-ylamino)propyl)-2-thienyl)-N,N-dimethylbenzamide] |  | 879 nM |  | 49.86 % inh
CC(C(=O)Nc1nncs1)C(c1ccccc1)c1ccc(-c2ccc(C(=O)N3CCOCC3)cc2)s1 (single isomer, unassigned) [Example 145, 2-methyl-3-(5-(4-(4-morpholinylcarbonyl)phenyl)-2-thienyl)-3-phenyl-N-1,3,4-thiadiazol-2-ylpropanamide] |  | 64.6 nM |  | 25.24 % inh
CC(C)(C(=O)Nc1nncs1)C(c1ccccc1)c1ccc(-c2ccc(C(=O)N3CCCC3)cc2)s1 (stereo not drawn) [Example 47, 2,2-dimethyl-3-phenyl-3-(5-(4-(1-pyrrolidinylcarbonyl)phenyl)-2-thienyl)-N-1,3,4-thiadiazol-2-ylpropanamide] | 39.9% |  | 3.71 nM | 
CC(C)(C(=O)Nc1nc(Cc2ccc(-c3ccncc3)cc2)cs1)C(c1ccccc1)c1ccncc1 (stereo not drawn) [Example 5, 2,2-dimethyl-3-phenyl-3-(4-pyridinyl)-N-(4-(4-(4-pyridinyl)benzyl)-1,3-thiazol-2-yl)propanamide] | 89.9% |  | 18.7 nM | 
CC(C)(C(=O)Nc1nncs1)[C@@H](c1cccc(F)c1)c1ccc(-c2ccc(C(=O)N3CCOCC3)c(F)c2)s1 [Example 83, (3R)-3-(5-(3-Fluoro-4-(4-morpholinylcarbonyl)phenyl)-2-thienyl)-3-(3-fluorophenyl)-2,2-dimethyl-N-1,3,4-thiadiazol-2-ylpropanamide] | 32.7% |  | 16.6 nM | 
CC(C(=O)Nc1nncs1)C(c1ccccc1)c1ccc(-c2ccc(C(=O)N(C)C)cc2)s1 (single isomer, unassigned) [Example 146, N,N-dimethyl-4-(5-(2-methyl-3-oxo-1-phenyl-3-(1,3,4-thiadiazol-2-ylamino)propyl)-2-thienyl)benzamide] | 59.1% | 14.6 nM |  | 
CC(C(=O)Nc1nncs1)C(c1ccccc1)c1ccc(-c2ccc(C(=O)N(C)C)c(Cl)c2)s1 (single isomer, unassigned) [Example 148, 2-chloro-N,N-dimethyl-4-(5-(2-methyl-3-oxo-1-phenyl-3-(1,3,4-thiadiazol-2-ylamino)propyl)-2-thienyl)benzamide] | 51.5% | 24.6 nM |  | 
CC(C)(C(=O)Nc1nccs1)C(c1ccccc1)c1ccc(N2CCOCC2)nc1 (stereo not drawn) [Example 14, 2,2-dimethyl-3-(6-(4-morpholinyl)-3-pyridinyl)-3-phenyl-N-1,3-thiazol-2-ylpropanamide] | 46% |  | 62.9 nM | 
CC(C)(C(=O)Nc1nncs1)C(c1ccccc1)c1ccc(-c2ccc(C(=O)N3CCOCC3)cc2)s1 (stereo not drawn) [Example 45, 2,2-dimethyl-3-(5-(4-(4-morpholinylcarbonyl)phenyl)-2-thienyl)-3-phenyl-N-1,3,4-thiadiazol-2-ylpropanamide] | 51% |  | 5.88 nM | 
CC(C)(C(=O)Nc1nccs1)C(c1cccc(F)c1)c1ccc(N2CCOCC2)s1 (stereo not drawn) [Example 10, 3-(3-fluorophenyl)-2,2-dimethyl-3-(5-(4-morpholinyl)-2-thienyl)-N-1,3-thiazol-2-ylpropanamide] | 40% |  | 700 nM | 
CN(C)C(=O)c1ccc(-c2ccc(C(c3ccccc3)C(C)(C)C(=O)Nc3nccs3)s2)cc1 (stereo not drawn) [Example 54, 4-(5-(2,2-Dimethyl-3-oxo-1-phenyl-3-(1,3-thiazol-2-ylamino)propyl)-2-thienyl)-N,N-dimethylbenzamide] | 62.4% |  | 9.45 nM | 
CCN(C)C(=O)c1ccc(-c2ccc([C@@H](c3cccc(F)c3)[C@@H](C)C(=O)Nc3nccs3)s2)cc1 [Example 143, N-ethyl-4-(5-((1R,2R)-1-(3-fluorophenyl)-2-methyl-3-oxo-3-(1,3-thiazol-2-ylamino)propyl)-2-thienyl)-N-methylbenzamide] | 63.6% |  | 16.9 nM | 
